{
  "source": "patent US20180000750A1",
  "about": "“ANTIPLATELET AGENT AND USES THEREOF” (priority 2015, published 2018)",
  "key": {"[1]": {"assay": "Occlusion time for irradiation induced platelet plug formation in mesenteric venules", "format": "in vivo, ICR mice", "conditions": "mice, DMSO vehicle 241±6.8 sec", "excerpt": "(§1) ICR mice (7-8 weeks old, each weighted about 18 to 25 g) were used in this study. All mice were maintained in the animal facility under 12 hrs light/dark cycle, with ad libitum access to food and water.\nIn this example, the effects of Physalin B on the aggregation of platelets were investigated by the measurement of the occlusion time for irradiation induced platelet plug formation. Briefly, mice were respectively treated with normal saline, DMSO vehicle, and Physalin B (i.e., 0.025, 0.05, or 0.1 mg/g), then the mesentertic venules were selected for irradiation to induce microthrombus formation. The occlusion time was defined as the time in which the platelet plug was first observed. Results are illustrated in FIG. 3."}, "[2]": {"test_system": "adhesion of THP-1 to HUVECs", "assay": "THP-1 cell adhesion to TNF-α-activated HUVECs", "format": "cell-based, human", "conditions": "80 μM, TNF-α-exposed cells, compared to TNF-α alone", "method": "HUVECs were starved in serum-free medium for 1 hour before treatments. For adhesion assays, HUVECs monolayers in 96-well plates were treated for 2 hours with physalin B and/or TNF-α for 4 hours. After treatment, 1×10^6 THP-1 cells labeled with 5 μM calcein-AM were seeded onto confluent HUVECs and co-cultured for 30 min at 37° C. in 5% CO2 incubator. Non-adherent THP-1 cells were removed by washing with 1× phosphate buffered saline (PBS) twice. Cell images were collected by a fluorescence microscope (Zeiss) and quantified using a fluorescence microplate reader at an excitation wavelength of 490 nm and an emission wavelength of 525 nm (Bio-Tek Synergy HT).\nThe in vitro adhesion of THP-1 to HUVECs was monitored by use of a fluorescence dye, Calcein-AM, which stains only the viable cells. Briefly, THP-1 cells were labeled with calcein-AM first, then co-cultured with physalin B pre-treated HUVECs in the presence of TNF-α, which was added to induce inflammation. The fluorescence intensity at 525 nm was then measured."}, "HUVECs": {"test_system": "HUVECs", "assay": "MTT cell viability, HUVECs", "format": "cell-based, human", "conditions": "48 hrs, read-out: IC50 (cytotoxicity, MTT)", "method": "HUVECs were purchased from American Type Culture Collection (ATCC) and were cultivated in endothelal cell nutrient medium consisting of 20% heat-inactivated fetal bovine serum (FBS), 80% Medium 199 (M199) buffered with 25 mM HEPES and supplemented with 2 mM L-Glutamine and 100 U/ml K-Penicillin and 100 μg/mL streptomycin, and kept at 37° C. in a 5% CO2 atmosphere.\nCell viability was measured with blue formazan that was metabolized from 3-(4,5-dimethylthiazol-2-yl)-2, 5-diphenyl tetrazolium bromide (MTT, Amresco USA) in mitochondria, which is active only in live cells. HUVEC and late EPCs were seeded in a 96-well plate at a density of 1×10^5 cells per well, cultured overnight and pretreated with various concentrations of physalin B. After incubation for 6 hr, 24 hr and 48 hr, the MTT (5 mg/ml) colorimetric viability test was used to determine the viability of cells. The absorbance of each well was measured at 540 nm with an ELISA reader and the percentage viability was calculated.\nThe in vitro cytotoxic effect of physalin B on HUVEC and EPCs were respectively determined by MTT assay, in which cells were exposed to various concentrations of physalin B (i.e., 0, 20, 40, 80 and 160 μM). Results are illustrated in FIGS. 5A and 5B."}, "[3]": {"biological_target": "T1, platelet glycoprotein (GP) IIb/IIIa receptors (Homo sapiens, UniProt P05106+P08514)", "T1 construct": "It is a whole-blood assay based on light transmission measurements; endogenous in cells; host or cells: platelets in citrated whole blood of healthy volunteers", "T1 sequence (P08514 32-887 limits assumed)": "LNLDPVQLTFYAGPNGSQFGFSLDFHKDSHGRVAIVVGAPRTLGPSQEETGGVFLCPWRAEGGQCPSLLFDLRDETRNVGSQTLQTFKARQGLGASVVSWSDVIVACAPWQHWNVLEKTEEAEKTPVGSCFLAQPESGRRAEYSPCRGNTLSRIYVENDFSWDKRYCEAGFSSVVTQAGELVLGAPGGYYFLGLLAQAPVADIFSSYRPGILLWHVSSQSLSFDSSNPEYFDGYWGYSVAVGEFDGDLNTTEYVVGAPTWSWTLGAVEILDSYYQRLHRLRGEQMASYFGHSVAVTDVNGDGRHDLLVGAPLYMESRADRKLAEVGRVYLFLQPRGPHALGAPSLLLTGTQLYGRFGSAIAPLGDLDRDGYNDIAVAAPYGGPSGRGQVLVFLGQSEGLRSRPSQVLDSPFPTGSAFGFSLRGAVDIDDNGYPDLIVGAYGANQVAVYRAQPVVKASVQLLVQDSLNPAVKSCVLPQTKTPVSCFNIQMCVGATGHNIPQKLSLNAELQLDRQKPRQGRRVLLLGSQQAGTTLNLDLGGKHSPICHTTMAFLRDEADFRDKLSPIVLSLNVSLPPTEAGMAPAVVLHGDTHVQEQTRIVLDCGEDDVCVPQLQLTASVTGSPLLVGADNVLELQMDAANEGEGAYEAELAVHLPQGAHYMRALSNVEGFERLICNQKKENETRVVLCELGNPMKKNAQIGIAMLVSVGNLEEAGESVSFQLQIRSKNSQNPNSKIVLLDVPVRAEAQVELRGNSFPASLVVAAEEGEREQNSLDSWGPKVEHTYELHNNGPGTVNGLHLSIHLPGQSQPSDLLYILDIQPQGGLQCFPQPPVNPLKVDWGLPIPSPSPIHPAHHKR", "T1 sequence (P08514 891-1039 limits assumed)": "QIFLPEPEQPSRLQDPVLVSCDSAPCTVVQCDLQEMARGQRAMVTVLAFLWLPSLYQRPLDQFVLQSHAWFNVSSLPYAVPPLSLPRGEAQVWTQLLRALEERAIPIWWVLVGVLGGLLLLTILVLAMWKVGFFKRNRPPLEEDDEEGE", "T1 sequence (P05106 27-788)": "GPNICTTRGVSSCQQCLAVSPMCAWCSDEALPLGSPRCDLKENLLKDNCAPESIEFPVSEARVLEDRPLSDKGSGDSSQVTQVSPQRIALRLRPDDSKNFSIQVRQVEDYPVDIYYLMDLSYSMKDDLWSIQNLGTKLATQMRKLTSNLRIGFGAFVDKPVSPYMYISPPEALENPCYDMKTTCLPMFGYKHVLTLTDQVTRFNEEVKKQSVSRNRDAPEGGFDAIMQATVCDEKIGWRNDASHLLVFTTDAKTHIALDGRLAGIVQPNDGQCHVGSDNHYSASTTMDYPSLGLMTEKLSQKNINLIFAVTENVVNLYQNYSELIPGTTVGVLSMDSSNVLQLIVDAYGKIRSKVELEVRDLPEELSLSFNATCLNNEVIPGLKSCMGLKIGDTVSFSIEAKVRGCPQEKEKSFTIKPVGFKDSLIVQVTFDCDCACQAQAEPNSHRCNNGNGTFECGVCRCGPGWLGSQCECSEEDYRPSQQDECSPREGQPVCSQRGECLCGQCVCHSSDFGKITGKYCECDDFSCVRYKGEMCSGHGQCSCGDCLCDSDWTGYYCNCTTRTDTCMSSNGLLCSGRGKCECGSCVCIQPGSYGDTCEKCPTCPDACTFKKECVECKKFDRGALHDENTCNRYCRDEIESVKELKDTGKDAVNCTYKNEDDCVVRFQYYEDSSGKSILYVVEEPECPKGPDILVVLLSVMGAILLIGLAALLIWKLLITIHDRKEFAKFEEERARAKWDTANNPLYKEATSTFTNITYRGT", "assay": "VerifyNow GPIIb/IIIa assay (PAU)", "format": "cell-based", "conditions": "no treatment 161", "excerpt": "(§2) It is a whole-blood assay based on light transmission measurements. The assay is a turbidimetric-based optical detection system that, like optical aggregometry, depends on the ability of activated platelets to bind fibrinogen. When platelets are activated, they form aggregates with fibrinogen-coated beads and the light transmission through the samples increases. Arachidonic acid, ADP and thrombin receptor activating peptide are the corresponding agonists used in VerifyNow system to specifically differentiate the platelet activation pathways. In the aspirin-specific assay, the degree of aggregation attenuated by aspirin, which blocks the arachidonic acid pathway, is quantified according to a corresponding decrease in light transmission and is reported as aspirin reaction units (ARU). ARU value less than 550 indicates adequate platelet inhibition by aspirin treatment. The residual activity of platelet after inhibition on P2Y12 receptor is represented as the P2Y12 reaction units (PRU). The normal PRU distribution range without anti-platelet therapy is 194-418. P2Y12 antagonist like clopidogrel and ticagrelor may be used as the positive control. […] The reference range was 125-330. Aggrastat may be used as the positive control medication for PAU value.\n(§3) The VerifyNow P2Y12 system measures the rate and extent of changes in light transmittance caused by platelets aggregating in whole blood samples."}, "platelets [4]": {"test_system": "platelets", "assay": "Lactate dehydrogenase release from platelets (cytotoxicity)", "format": "cell-based", "conditions": "up to 160 μM, 30 min at 37° C.", "method": "Cytotoxicity of physalin B on platelets were evaluated by measuring the release of lactate dehydrogenase (LDH). Platelets were suspended in Tyrodes's solution at a concentration of 3×10^8 platelets/ml. For positive control, platelets were disrupted by sonication at 4° C. for 30 sec at 40 kHz with a Biosonic Sonicator. The supernatant was used for LDH determinations. LDH activity was measured as an increase in the absorbance of NADH at 340 nm using lactate as substrates. The tests were carried out with a Toshiba Medical automatic chemical analyzer, TBA-200FR (Toshiba Medical products). The platelets were pretreated with various concentrations of physalin B for 30 min at 37° C., and the supernatant was used to measure the LDH activity.\nIn this example, the cytotoxic effect of physalin B on platelets was investigated by measuring the activity of lactate dehydrogenase (LDH) released from the ruptured platelets. The platelets were exposed to various concentrations of physalin B (PHB) or DMSO, which was used as the vehicle control, while sonication ruptured platelets served as a positive control. The final concentration of DMSO in the test medium was less than 0.1%. Results are depicted in FIG. 4."}, "P2Y12 receptor": {"biological_target": "T2, P2Y12 receptor (Homo sapiens, UniProt Q9H244)", "T2 construct": "It is a whole-blood assay based on light transmission measurements; endogenous in cells; host or cells: platelets in citrated whole blood of healthy volunteers", "T2 sequence (Q9H244 whole entry)": "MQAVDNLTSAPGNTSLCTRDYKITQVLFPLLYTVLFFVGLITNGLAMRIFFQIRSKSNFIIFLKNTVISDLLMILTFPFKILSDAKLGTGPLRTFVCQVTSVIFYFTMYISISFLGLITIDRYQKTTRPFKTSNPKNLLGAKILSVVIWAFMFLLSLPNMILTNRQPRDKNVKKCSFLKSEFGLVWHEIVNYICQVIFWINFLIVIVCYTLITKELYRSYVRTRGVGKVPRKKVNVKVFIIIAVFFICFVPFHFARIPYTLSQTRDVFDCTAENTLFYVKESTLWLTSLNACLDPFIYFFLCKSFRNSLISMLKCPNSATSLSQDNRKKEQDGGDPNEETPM", "assay": "VerifyNow P2Y12 assay (PRU)", "format": "cell-based", "conditions": "no treatment 314", "excerpt": "as §2, §3"}, "platelets [5]": {"test_system": "platelets", "assay": "PFA-100 platelet function, collagen/epinephrine (CEPI) cartridge closure time", "format": "cell-based, human", "conditions": "10 μM, collagen-epinephrine stimulus, citrated whole blood; control 125 sec", "method": "(§4) Ten healthy, non-smoking volunteers (6 women, 4 men), ages 23-39 years old, participated in this study. The citrated whole blood samples were incubated at room temperature for 60 min. with physalin B (dissolved in 0.5% DMSO) or the vehicle alone. Platelet function measurement was performed with a PFA-100 analyzer system (Dade-Behring, Marburg, Germany). The PFA-100TM device measures the closure time (CT) required for platelets to plug an aperture simulating an injured vessel after platelet activation by relevant stimuli, namely collagen-epinephrine (EPI) or collagen-ADP (ADP). The maximum value for closure time is 300 seconds and values greater than 300 seconds are reported as non-closure. The closure time was determined with duplicate samples of 800 μL using cartridges containing collagen-epinephrine or collagen-ADP membranes.\n(§5) The PFA-100 system is a platelet function analyzer designed to measure platelet-related primary hemostasis. The system uses two disposable cartridges: a collagen/epinephrine (CEPI) and a collagen/ADP (CADP) cartridge."}, "late EPCs": {"test_system": "late EPCs", "assay": "MTT cell viability, late EPCs", "format": "cell-based, human", "conditions": "48 hrs, read-out: IC50 (cytotoxicity, MTT)", "method": "Two different types of EPCs were cultured from adult peripheral blood and defined as early EPCs and late EPCs according to their time-dependent appearance. […] Peripheral blood (20 mL) was obtained from donors with informed consent. The mononuclear cells were fractionated from other components of peripheral blood by centrifugation on Histopaque 1077 (Sigma, St. Louis, Mo.), with gradients according to the manufacturer's instructions. The isolated mononuclear cells were re-suspended with a EGM-2 BulletKit system (catalog number CC-3162; Clonetics™) consisting of an endothelial basal medium, 5% fetal bovine serum, hEGF, VEGF, hFGF-B, IGF-1, ascorbic acid, and heparin; 1×10^7 mononuclear cells per well were seeded on 2% gelatin-coated 6-well plates (Sigma, St. Louis, Mo.) and incubated in a 5% CO2 incubator at 37° C. […]\nCell viability was measured with blue formazan that was metabolized from 3-(4,5-dimethylthiazol-2-yl)-2, 5-diphenyl tetrazolium bromide (MTT, Amresco USA) in mitochondria, which is active only in live cells. […] The absorbance of each well was measured at 540 nm with an ELISA reader and the percentage viability was calculated.\nThe in vitro cytotoxic effect of physalin B on HUVEC and EPCs were respectively determined by MTT assay, in which cells were exposed to various concentrations of physalin B (i.e., 0, 20, 40, 80 and 160 μM). […]"}, "Tail bleeding time": {"assay": "Tail bleeding time", "format": "in vivo, ICR mice", "conditions": "mice, intraperitoneal, 0.1 mg/Kg, cut 30 minutes after treatment; DMSO vehicle 83.1±11.7 sec", "excerpt": "as §1\nBriefly, the test mice were randomly divided into three groups, in which the control mice received intraperitoneal injection of normal saline, whereas mice in the vehicle and the test groups respectively received intraperitoneal injection of the vehicle (i.e., DMSO) and Physalin B (i.e., […]). A cut (about 2-3 mm in length) was incised on the tail vein of each mice (about 3-5 cm from the tip of the tail) 30 minutes after the indicated treatment, then the blood was collected into a warm saline, in which the volume and the time to cessation of bleeding were both measured. Bleeding time was defined as the time in which the first cessation of bleeding was observed. Results are illustrated in FIG. 2."}, "platelets [6]": {"test_system": "platelets", "assay": "PFA-100 platelet function, collagen/ADP (CADP) cartridge closure time", "format": "cell-based, human", "conditions": "10 μM, collagen/ADP stimulus, citrated whole blood", "method": "as §4, §5"}, "arachidonic acid pathway": {"test_system": "arachidonic acid pathway", "assay": "VerifyNow aspirin assay (ARU)", "format": "cell-based, human", "conditions": "no treatment 660", "excerpt": "as §2, §3"}, "[7]": {"conditions": "reference drug treatment, normal range 194-418"}},
  "data": [
    {"smiles": "C[C@]12C(=O)C=CCC1=CC[C@@H]1[C@@H]2CC[C@]2(O)C(=O)O[C@@]3(C)[C@H]4C[C@]5(C)[C@@H](CO[C@@]16O[C@@]32[C@H]5C6=O)C(=O)O4", "note": "[Physalin B]", "values": [
      {"measurement": "occlusion time", "setting": "[1]; 0.025 mg/g", "value": "349 ± 12.3", "unit": "s"},
      {"measurement": "occlusion time", "setting": "[1]; 0.05 mg/g", "value": "390 ± 7", "unit": "s"},
      {"measurement": "occlusion time", "setting": "[1]; 0.1 mg/g", "value": "415 ± 34.5", "unit": "s"},
      {"measurement": "inhibition on the adhesion of THP-1 to HUVECs", "setting": "[2]", "value": "about 35%"},
      {"measurement": "IC50", "setting": "HUVECs", "value": 30, "unit": "µM"},
      {"measurement": "GPIIb/IIIa (PAU)", "setting": "[3]; 20 μM", "value": 144, "unit": "PAU"},
      {"measurement": "GPIIb/IIIa (PAU)", "setting": "[3]; 50 μM", "value": 129, "unit": "PAU"},
      {"measurement": "LDH release from platelets", "setting": "platelets [4]", "value": "no obvious LDH release"},
      {"measurement": "P2Y12 (PRU)", "setting": "P2Y12 receptor; 20 μM", "value": 226, "unit": "PRU"},
      {"measurement": "P2Y12 (PRU)", "setting": "P2Y12 receptor; 50 μM", "value": 65, "unit": "PRU"},
      {"measurement": "closure time", "setting": "platelets [5]", "value": 260, "unit": "s"},
      {"measurement": "IC50", "setting": "late EPCs", "value": 76, "unit": "µM"},
      {"measurement": "tail bleeding time", "setting": "Tail bleeding time", "value": "224.4 ± 58.9", "unit": "s"},
      {"measurement": "closure time", "setting": "platelets [6]", "value": "statistically significant prolonged closure time"},
      {"measurement": "Aspirin (ARU)", "setting": "arachidonic acid pathway; 20 μM", "value": 469, "unit": "ARU"},
      {"measurement": "Aspirin (ARU)", "setting": "arachidonic acid pathway; 50 μM", "value": 366, "unit": "ARU"}
    ]},
    {"smiles": "COC(=O)[C@H](c1ccccc1Cl)N1CCc2sccc2C1", "note": "[Clopidogrel, reference compound]", "values": [
      {"measurement": "P2Y12 (PRU)", "setting": "P2Y12 receptor; [7]", "value": 263, "unit": "PRU"}
    ]},
    {"smiles": "CCCSc1nc(N[C@@H]2C[C@H]2c2ccc(F)c(F)c2)c2nnn([C@@H]3C[C@H](OCCO)[C@@H](O)[C@H]3O)c2n1", "note": "[Ticagrelor, reference compound]", "values": [
      {"measurement": "P2Y12 (PRU)", "setting": "P2Y12 receptor; [7]", "value": 1, "unit": "PRU"}
    ]},
    {"smiles": "CCCCS(=O)(=O)N[C@@H](Cc1ccc(OCCCCC2CCNCC2)cc1)C(=O)O", "note": "[Aggrastat, reference compound]", "values": [
      {"measurement": "GPIIb/IIIa (PAU)", "setting": "[3]; reference drug treatment, reference range 125-330", "value": 1, "unit": "PAU"}
    ]},
    {"smiles": "CC(=O)Oc1ccccc1C(=O)O", "note": "[Aspirin, Acetylsalicylic acid, reference compound]", "values": [
      {"measurement": "Aspirin (ARU)", "setting": "arachidonic acid pathway; reference drug treatment, <550 indicates adequate inhibition", "value": 404, "unit": "ARU"}
    ]}
  ]
}
